“And” between values parts separate entries of the source, which are not always exact repeats. Identical values can stand only once. Toxic doses and inconclusive results are not listed. Rule for the calls: active = survival T/C of 150% or more; inactive = T/C below 125% in these data.
Test system: P388 leukemia ip, CD2F1 mice, survival T/C
Assay: NCI In Vivo Anticancer Drug Screen. Data for tumor model P388 Leukemia (intraperitoneal) in CD2F1 (CDF1) mice
Conditions: endpoint: median survival time, higher = longer survival
How it was run: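 Mice carrying the transplanted tumor received test compound or vehicle. Survival was recorded in each group, and the value is the treated-group measurement divided by that of the vehicle-treated control group.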

[1] = dose: 12.5 mg/kg/injection, schedule: Q01DX009 (ip), vehicle: Klucel (hydroxypropylcellulose) (HPC)
[2] = dose: 60.0 mg/kg/injection, schedule: Q01DX005 (ip), vehicle: saline with Tween-80
[3] = dose: 120.0 mg/kg/injection, schedule: Q01DX005 (ip), vehicle: saline with Tween-80
[4] = dose: 240.0 mg/kg/injection, schedule: Q01DX005 (ip), vehicle: saline with Tween-80
[5] = dose: 50.0 mg/kg/injection, schedule: Q01DX005 (ip), vehicle: saline with Tween-80
[6] = dose: 100.0 mg/kg/injection, schedule: Q01DX005 (ip), vehicle: saline with Tween-80
[7] = dose: 200.0 mg/kg/injection, schedule: Q01DX005 (ip), vehicle: saline with Tween-80
[8] = dose: 60.0 mg/kg/injection, schedule: Q01DX005 (ip), vehicle: Klucel (hydroxypropylcellulose) (HPC)
[9] = dose: 120.0 mg/kg/injection, schedule: Q01DX005 (ip), vehicle: Klucel (hydroxypropylcellulose) (HPC)
[10] = dose: 100.0 mg/kg/injection, schedule: Q01DX001 (ip), vehicle: saline with Tween-80
[11] = dose: 200.0 mg/kg/injection, schedule: Q01DX001 (ip), vehicle: saline with Tween-80
[12] = dose: 400.0 mg/kg/injection, schedule: Q01DX001 (ip), vehicle: saline with Tween-80
[13] = dose: 240.0 mg/kg/injection, schedule: Q01DX005 (ip), vehicle: Klucel (hydroxypropylcellulose) (HPC)
[14] = dose: 50.0 mg/kg/injection, schedule: Q01DX005 (ip), vehicle: Klucel (hydroxypropylcellulose) (HPC)
[15] = dose: 100.0 mg/kg/injection, schedule: Q01DX005 (ip), vehicle: Klucel (hydroxypropylcellulose) (HPC)
[16] = dose: 200.0 mg/kg/injection, schedule: Q01DX005 (ip), vehicle: Klucel (hydroxypropylcellulose) (HPC)
[17] = dose: 6.25 mg/kg/injection, schedule: Q01DX009 (ip), vehicle: Klucel (hydroxypropylcellulose) (HPC)
[18] = dose: 50.0 mg/kg/injection, schedule: Q01DX009 (ip), vehicle: saline with Tween-80
[19] = dose: 100.0 mg/kg/injection, schedule: Q01DX009 (ip), vehicle: saline with Tween-80

Measured: T/C

O=C(O)CC(CC(=O)c1ccccc1)c1ccccc1 (stereo not given)
inactive: [1] 104 % of control | dose: 25.0 mg/kg/injection, schedule: Q01DX009 (ip), vehicle: Klucel (hydroxypropylcellulose) (HPC) 101 % of control | dose: 50.0 mg/kg/injection, schedule: Q01DX009 (ip), vehicle: Klucel (hydroxypropylcellulose) (HPC) 103 % of control and 108 % of control | dose: 100.0 mg/kg/injection, schedule: Q01DX009 (ip), vehicle: Klucel (hydroxypropylcellulose) (HPC) 101 % of control and 102 % of control and 107 % of control | dose: 200.0 mg/kg/injection, schedule: Q01DX009 (ip), vehicle: Klucel (hydroxypropylcellulose) (HPC) 104 % of control and 94 % of control | dose: 400.0 mg/kg/injection, schedule: Q01DX009 (ip), vehicle: Klucel (hydroxypropylcellulose) (HPC) 104 % of control and 93 % of control

C=COCC(C)C (tested in a mixture with another compound)
inactive: dose: 1.56 mg/kg/injection, schedule: Q01DX009 (ip), vehicle: saline with Tween-80 108 % of control | dose: 3.12 mg/kg/injection, schedule: Q01DX009 (ip), vehicle: saline with Tween-80 101 % of control | dose: 6.25 mg/kg/injection, schedule: Q01DX009 (ip), vehicle: saline with Tween-80 96 % of control

COc1cc2c(cc1C(CC(C)=O)c1cc(OC)c(OC)c(OC)c1)OCO2 (stereo not given)
inactive: [2] 100 % of control | [3] 100 % of control | [4] 103 % of control

Cc1c(O)c2ccc(N(C)C)cc2[nH]c1=O
inactive: [5] 101 % of control | [6] 95 % of control | [7] 100 % of control

CC1(C)CN=C(NN=C(/C=C/c2ccc(C(F)(F)F)cc2)/C=C/c2ccc(C(F)(F)F)cc2)NC1
inactive: [8] 98 % of control | [9] 98 % of control

C/C(N=NC(=S)N1CCN(c2ccccc2)CC1)=C1\C=CC=CN1O
inactive: [5] 103 % of control | [6] 101 % of control | [7] 103 % of control

Cn1c(=O)ccc2c3ncccc3c(C(F)(F)F)cc21
inactive: [10] 99 % of control | [11] 100 % of control | [12] 101 % of control

COc1cc2c3c(c1OC)-c1[nH]c4ccccc4c1C1CCCN(CC2)C31 (stereo not given)
inactive: [8] 95 % of control | [9] 96 % of control | [13] 98 % of control

NC(=O)N(CCO)/N=C/C=C/c1ccc([N+](=O)[O-])o1
inactive: [14] 106 % of control | [15] 115 % of control | [16] 108 % of control

CC(C)C1SCC(=O)N1c1nncs1 (stereo not given)
inactive: [2] 103 % of control | [3] 112 % of control | [4] 107 % of control

O=C(CBr)Nc1ncc([N+](=O)[O-])s1
inactive: [17] 102 % of control | [1] 104 % of control

CCOC(=O)Cn1ncnn1
inactive: dose: 100.0 mg/kg/injection, schedule: Q04DX003 (ip), vehicle: Klucel (hydroxypropylcellulose) (HPC) 103 % of control | dose: 200.0 mg/kg/injection, schedule: Q04DX003 (ip), vehicle: Klucel (hydroxypropylcellulose) (HPC) 100 % of control | dose: 400.0 mg/kg/injection, schedule: Q04DX003 (ip), vehicle: Klucel (hydroxypropylcellulose) (HPC) 102 % of control

CCCCc1ccc(NC(=O)On2c3ccccc3c3ccccc32)cc1
inactive: [14] 96 % of control | [15] 94 % of control | [16] 95 % of control

S=c1ncnc2cc3[nH][nH]cc3cc12
inactive: [5] 90 % of control | [6] 86 % of control | [7] 92 % of control

CCOC(=O)/C=C(\C)C(F)(F)F
inactive: dose: 15.0 mg/kg/injection, schedule: Q01DX005 (ip), vehicle: saline with Tween-80 95 % of control | dose: 30.0 mg/kg/injection, schedule: Q01DX005 (ip), vehicle: saline with Tween-80 100 % of control and 103 % of control | [2] 98 % of control and 104 % of control and 94 % of control | [3] 100 % of control and 101 % of control | [4] 106 % of control and 111 % of control

CC(=O)NC1C(Nc2ccc(S(=O)(=O)NC(C)=O)cc2)OC(CO)C(O)C1O (stereo not given)
inactive: dose: 50.0 mg/kg/injection, schedule: Q01DX005 (ip), vehicle: saline 100 % of control | dose: 100.0 mg/kg/injection, schedule: Q01DX005 (ip), vehicle: saline 97 % of control | dose: 200.0 mg/kg/injection, schedule: Q01DX005 (ip), vehicle: saline 97 % of control

COc1cc2ccc(/C=C/C(=O)c3ccc4c(c3)OCO4)cc2cc1OC
inactive: dose: 25.0 mg/kg/injection, schedule: Q01DX009 (ip), vehicle: water 103 % of control | dose: 50.0 mg/kg/injection, schedule: Q01DX009 (ip), vehicle: water 98 % of control | dose: 100.0 mg/kg/injection, schedule: Q01DX009 (ip), vehicle: water 97 % of control | dose: 200.0 mg/kg/injection, schedule: Q01DX009 (ip), vehicle: water 98 % of control | dose: 400.0 mg/kg/injection, schedule: Q01DX009 (ip), vehicle: water 91 % of control

Cc1nc(CC#N)c(C(N)=O)c(Nc2ccccc2)n1
inactive: [10] 92 % of control | [11] 92 % of control | [12] 111 % of control

COc1cccc(C(=O)N/N=C(\C#N)c2cccc(OC)c2)c1
inactive: [5] 97 % of control | [6] 94 % of control

COc1ccc(-c2coc3cc(OC4OC(COC5OCC(O)C(O)C5O)C(O)C(O)C4O)cc(O)c3c2=O)cc1 (stereo not given)
inactive: dose: 25.0 mg/kg/injection, schedule: Q01DX009 (ip), vehicle: saline with Tween-80 103 % of control | [18] 98 % of control | [19] 102 % of control

CCCC(O)(CCC)/C(C)=N/NC(N)=O
inactive: [18] 95 % of control | [19] 97 % of control | dose: 200.0 mg/kg/injection, schedule: Q01DX009 (ip), vehicle: saline with Tween-80 92 % of control

N#Cc1c(NC(=O)Nc2cc(C(F)(F)F)ccc2Cl)sc(=S)c2c1CCCC2
inactive: [5] 100 % of control | [6] 103 % of control

CCO/C=C/C(=O)O
inactive: [2] 106 % of control | [3] 100 % of control | [4] 107 % of control

CCn1c(=O)c2ncnnc2n(CC)c1=O
inactive: [17] 104 % of control | [1] 111 % of control

CCc1c(O)c(C(C)=O)c(S)[nH]c1=O
inactive: [8] 101 % of control and 88 % of control | [9] 102 % of control | [13] 114 % of control and 87 % of control

O=S(=O)(O)OCNc1cc(F)cc(F)c1
inactive: dose: 50.0 mg/kg/injection, schedule: Q01DX009 (ip), vehicle: saline 96 % of control | dose: 100.0 mg/kg/injection, schedule: Q01DX009 (ip), vehicle: saline 99 % of control | dose: 200.0 mg/kg/injection, schedule: Q01DX009 (ip), vehicle: saline 101 % of control

CC(=O)Oc1cc2c(cc1C(NC(N)=O)c1ccc3c(c1)OCO3)OCO2 (stereo not given)
inactive: [8] 100 % of control | [9] 93 % of control | [13] 92 % of control

CCN(CC)c1ccc(C(=C2C=CC(=[N+](CC)CC)C=C2)c2ccc(N(CC)CC)cc2)cc1
inactive: [5] 113 % of control and 120 % of control

CCOc1c(N=Nc2ccccc2)c(C)nn1C(=S)SC
inactive: dose: 60.0 mg/kg/injection, schedule: Q01DX005 (ip), vehicle: Klucel + Tween-80 110 % of control | dose: 120.0 mg/kg/injection, schedule: Q01DX005 (ip), vehicle: Klucel + Tween-80 108 % of control | dose: 240.0 mg/kg/injection, schedule: Q01DX005 (ip), vehicle: Klucel + Tween-80 100 % of control

C=CC(C)(C)C1(O)Oc2cc(OC)ccc2C=C1c1ccccc1 (stereo not given)
inactive: dose: 100.0 mg/kg/injection, schedule: Q01DX001 (ip), vehicle: Klucel (hydroxypropylcellulose) (HPC) 101 % of control | dose: 200.0 mg/kg/injection, schedule: Q01DX001 (ip), vehicle: Klucel (hydroxypropylcellulose) (HPC) 101 % of control | dose: 400.0 mg/kg/injection, schedule: Q01DX001 (ip), vehicle: Klucel (hydroxypropylcellulose) (HPC) 91 % of control

CCOC(=O)Sc1ncnc2nc[nH]c12
inactive: dose: 33.0 mg/kg/injection, schedule: Q01DX009 (ip), vehicle: saline with Tween-80 113 % of control | [18] 122 % of control | dose: 75.0 mg/kg/injection, schedule: Q01DX009 (ip), vehicle: saline with Tween-80 122 % of control | dose: 100.0 mg/kg/injection, schedule: Q04DX003 (ip), vehicle: saline with Tween-80 104 % of control | dose: 200.0 mg/kg/injection, schedule: Q04DX003 (ip), vehicle: saline with Tween-80 108 % of control

Cc1cc(OP2(=O)Nc3cccc4cccc(c34)N2)ccc1Cl
inactive: [5] 89 % of control | [6] 89 % of control

COC(=O)c1sc(N2CCCC2)nc1N
inactive: [2] 102 % of control | [3] 99 % of control | [4] 97 % of control

Reference: PubChem BioAssay AID330 (DTP/NCI, 2004)
